From patent US11535630B2, “Apelin receptor (APJ) agonists and uses thereof” (Research Triangle Institute, priority 2015, dated 2022)

Target: T1, apelin receptor (APJ) (Homo sapiens, UniProt P35414)
T1 sequence (P35414 1-380): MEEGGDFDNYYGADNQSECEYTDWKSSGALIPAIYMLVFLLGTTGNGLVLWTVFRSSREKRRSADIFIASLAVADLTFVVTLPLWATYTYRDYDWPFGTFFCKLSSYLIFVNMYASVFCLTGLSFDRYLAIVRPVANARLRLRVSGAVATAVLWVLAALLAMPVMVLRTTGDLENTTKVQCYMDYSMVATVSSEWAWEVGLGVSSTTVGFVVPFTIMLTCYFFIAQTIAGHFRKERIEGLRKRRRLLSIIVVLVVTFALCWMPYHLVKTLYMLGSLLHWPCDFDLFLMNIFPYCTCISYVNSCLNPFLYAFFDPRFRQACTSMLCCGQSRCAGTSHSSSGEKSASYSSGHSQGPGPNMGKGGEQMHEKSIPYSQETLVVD
Assay: In vitro apelin agonist activity (methods of Giddings et al., Apelin-13 as positive control)
Format: cell-based
Conditions: EC50 (nM) Ave, in vitro apelin agonist activity, methods of Giddings et al., Apelin-13 as positive control
Description: Characterization of the Apelin Agonist Activity of the Compounds
1:39-47, the contents of which are hereby incorporated by reference in its entirety. Using the methods described in Giddings et al. and Apelin-13 as a positive control.

Going from `O=C(C[C@H](CN1CCCC(F)(F)C1)NC(=O)c1cc(-c2ccccc2C(F)(F)F)n(C2CCCC2)n1)NC1CCC1` [compound 524, (3R)-N-cyclobutyl-3-({1-cyclopentyl-5-[2-(trifluoromethyl)phenyl]-1H-pyrazol-3-yl]formamido)-4-(3,3-difluoropiperidin-1-yl)butanamide] to `O=C(O)C[C@H](CCN1CC(F)(F)C(F)(F)C(F)(F)C1)NC(=O)c1cc(-c2ccccc2C(F)(F)F)n(C2CCCC2)n1` [compound 566, (3S)-3-({1-cyclopentyl-5-[2-(trifluoromethyl)phenyl]-1H-pyrazol-3-yl}formamido)-5-(3,3,4,4,5,5-hexafluoropiperidin-1-yl)pentanoic acid], the EC50 rises from 910 nM to 3050 nM (3.4-fold). The first is the more potent here.

Same assay, conditions: in vitro apelin agonist activity, methods of Giddings et al., Apelin-13 as positive control; read-out: EC50 (nM) Ave

Compared with `COc1cccc(OC)c1-c1cc(C(=O)N[C@H](CC(=O)O)Cc2ccccc2)nn1C1CCCC1` [compound 401, (3S)-3-{[1-cyclopentyl-5-(2,6-dimethoxyphenyl)-1H-pyrazol-3-yl]formamido}-4-phenylbutanoic acid], `O=C(O)C[C@H](CCc1ccc(F)cc1)NC(=O)c1cc(-c2ccccc2C(F)(F)F)n(C2CCCC2)n1` [compound 463] is lower in EC50: > 10000 nM for the first, 1240 nM for the second. The second is the more potent here.

`CCc1cc(F)ccc1-c1cc(C(=O)N[C@@H](CCN2CCCCC2)CC(=O)NC2CCC2)nn1C1CCCC1` [compound 399, (3S)-N-cyclobutyl-3-{[1-cyclopentyl-5-(2-ethyl-4-fluorophenyl)-1H-pyrazol-3-yl]formamido}-5-(piperidin-1-yl)pentanamide] and `CSc1ccccc1-c1cc(C(=O)N[C@@H](CCN2CCCCC2)CC(=O)NC2CCC2)nn1C1CCCC1` [compound 360, (3S)-N-cyclobutyl-3-({1-cyclopentyl-5-[2-(methylsulfanyl)phenyl]-1H-pyrazol-3-yl]formamido)-5-(piperidin-1-yl)pentanamide] are within 1.5-fold of each other in EC50: 264 nM for the first, 376 nM for the second.

Compared with `C[C@H](C[C@@H](CC(=O)O)NC(=O)c1cc(-c2ccccc2C(C)(F)F)n(C2CCCC2)n1)N1C[C@@H](F)[C@H](F)C1` (mixture of isomers) [compound 599, (3S,5R)-3-({1-cyclopentyl-5-[2-(1,1-difluoroethyl)phenyl]-1H-pyrazol-3-yl}formamido)-5-[trans-3,4-difluoropyrrolidin-1-yl]hexanoic acid], `O=C(O)C[C@H](CCN1CCCC[C@@H]1C(F)(F)F)NC(=O)c1cc(-c2ccccc2C(F)(F)F)n(C2CCCC2)n1` [compound 488, (3S)-3-({1-cyclopentyl-5-[2-(trifluoromethyl)phenyl]-1H-pyrazol-3-yl}formamido)-5-[(2R)-2-(trifluoromethyl)piperidin-1-yl]pentanoic acid] is 56-fold higher in EC50: 24 nM for the first, 1340 nM for the second.

First: CCN(C(=O)c1cc(-c2c(OCC(F)(F)F)cccc2OCC(F)(F)F)n(C2CCCC2)n1)[C@@H](CCN1CCCCC1)CC(=O)NC1CCC1 [compound 342, (3S)-3-(1-{5-[2,6-bis(2,2,2-trifluoroethoxy)phenyl]-1-cyclopentyl-1H-pyrazol-3-yl}-N-ethylformamido)-N-cyclobutyl-5-(piperidin-1-yl)pentanamide]
Second: O=C(C[C@H](CC(=O)N1CCCCC1)NC(=O)c1cc(-c2ccccc2C(F)(F)F)n(C2CCCC2)n1)NC1CCC1 [compound 514, (3R)-N-cyclobutyl-3-({1-cyclopentyl-5-[2-(trifluoromethyl)phenyl]-1H-pyrazol-3-yl}formamido)-5-oxo-5-(piperidin-1-yl)pentanamide]
The EC50 of the first is higher: > 10000 nM for the first, 79 nM for the second.

First: CN(CC[C@@H](CC(=O)NC1CCC1)NC(=O)c1cc(-c2ccccc2C(F)(F)F)n(C2CCCC2)n1)C1CCCCC1 [compound 483]
Second: O=C(C[C@H](CCN1CCCC(F)(F)C1)NC(=O)c1cc(-c2cccnc2Cl)n(C2CCCC2)n1)NC1CCC1 [compound 469, (3S)-3-{[5-(2-chloropyridin-3-yl)-1-cyclopentyl-1H-pyrazol-3-yl]formamido}-N-cyclobutyl-5-(3,3-difluoropiperidin-1-yl)pentanamide]
The EC50 of the first is 9.5-fold lower: 14 nM for the first, 133 nM for the second.
